Assay results reported in US12653186B2, “[(1-phenyl-5-(heteroaryl)-1H-1,2,4-triazol-3-yl)oxy] acetic acid derivatives as safeners for the protection of useful plants and crop plants” (BAYER AKTIENGESELLSCHAFT, priority 2020, dated 2026).

Tests used:
summer barley (HORVS) = test: Reduction of damage by mesosulfuron-methyl on summer barley (safener action, greenhouse, post-emergence); format: in vivo, summer barley (HORVS; cv. Montoya); set-up: key: 0: no reduction in damage (appearance corresponding to the herbicide control); 1: slight reduction in damage; 2: distinct reduction in damage; 3: significant reduction in damage; 4: complete reduction in damage (appearance corresponding to the untreated control); conditions: then mesosulfuron-methyl 40-60 g/ha, visual assessment 9-13 days after application, 2 repeats
Protocol: (§1) 2.2 Relative Action of Selected Compounds of the Invention Using the Example of Reduction of Damage by Mesosulfuron-Methyl on Summer Barley (HORVS) The seeds of the crop plants to be treated are laid out in sandy loam in plastic pots (diameter ˜4 cm), covered with soil and grown in a greenhouse under good conditions for germination and growth. The trial plants were treated at the early leaf stage (BBCH10-BBCH12). In the course of this, the inventive compounds of the general formula (I) formulated in the form of wettable powders (WP) were sprayed onto the above-ground parts of the plants as an aqueous suspension with a water application rate corresponding to 800 l/ha with addition of wetting agent (e.g. 0.2% Genapol-LRO or 0.2% Mero) in the specified dose. This was followed by the application of the herbicide. For this purpose, mesosulfuron-methyl, formulated in the form of water-dispersible granules (WG), was sprayed onto the above-ground parts of the plants in the form of an aqueous dispersion with a water application rate corresponding to 800 l/ha with addition of wetting agent (e.g. 0.2% Genapol-LRO or 1 l/ha Biopower) in a dose of 40-60 g/ha. The dose of the herbicide was chosen here such that it causes visually apparent damage (min. 30%, max. 75%) compared to untreated crop plants at the evaluation time on a control group of crop plants without safener treatment that were included in the same trial. After application, the plants were cultivated under good growth conditions in a greenhouse. 9-13 days after application, the efficacy of the test compounds was assessed visually. For this purpose, the appearance of the plants treated with the test compound and herbicide was compared to the corresponding herbicide controls (without safener; with clearly visible damage) and the untreated controls (without damage). The damage-reducing effect of the test compounds was expressed here separately for 2 repeats in graded efficacy codes according to the following scheme: • 0: no reduction in damage (appearance corresponding to the herbicide control) • 1: slight reduction in damage • 2: distinct reduction in damage • 3: significant reduction in damage • 4: complete reduction in damage (appearance corresponding to the untreated control) The trials show clear efficacy of the inventive compounds selected by way of example with regard to the reduction in damage to the summer barley crop plant (HORVS; cv. Montoya) caused by the herbicide mesosulfuron-methyl: […]

summer wheat (TRZAS) = test: Reduction of damage by mesosulfuron-methyl on summer wheat (safener action, greenhouse, post-emergence); format: in vivo, summer wheat (TRZAS; cv. Triso); set-up: key: 0: no reduction in damage (appearance corresponding to the herbicide control); 1: slight reduction in damage; 2: distinct reduction in damage; 3: significant reduction in damage; 4: complete reduction in damage (appearance corresponding to the untreated control); conditions: then mesosulfuron-methyl 40-60 g/ha, visual assessment 9-13 days after application
Protocol: as §1, with “2.1” for “2.2”, “Wheat (TRZAS)” for “Barley (HORVS)”, “here” for “here separately for 2 repeats”, “wheat” for “barley”, “(TRZAS;” for “(HORVS;”, “Triso)” for “Montoya)”

Row | SMILES | Efficacy of the safener (efficacy code) (summer barley (HORVS); safener 100 g/ha) | Efficacy of the safener (efficacy code) (summer wheat (TRZAS); safener 100 g/ha) | Efficacy of the safener (efficacy code) (summer wheat (TRZAS); safener 500 g/ha) | Efficacy of the safener (efficacy code) (summer barley (HORVS); safener 500 g/ha)
1 | COC(=O)COc1nc(-c2ccc(Cl)cn2)n(-c2ccc(F)cc2F)n1 [I.28-38, Methyl {[5-(5-chloropyridin-2-yl)-1-(2,4-difluorophenyl)-1H-1,2,4-triazol-3-yl]oxy}acetate] | 2 | – | – | –
2 | COC(=O)COc1nc(-c2ccc(Cl)cn2)n(-c2ccc(Cl)cc2F)n1 [I.28-49] | 2 | 2 | – | –
3 | CCOC(=O)COc1nc(-c2ccc(Cl)cn2)n(-c2ccccc2F)n1 [I.29-2] | – | 2 | – | –
4 | CCOC(=O)COc1nc(-c2ccc(Cl)cn2)n(-c2ccc(F)cc2F)n1 [I.29-38] | 2 | 2 | – | –
5 | O=C(O)COc1nc(-c2ccc(Cl)cn2)n(-c2ccc(F)cc2F)n1 [I.30-38, {[5-(5-Chloropyridin-2-yl)-1-(2,4-difluorophenyl)-1H-1,2,4-triazol-3-yl]oxy}acetic acid] | 2 | 2 | – | –
6 | COC(=O)COc1nc(-c2ccc(F)cn2)n(-c2ccc(Cl)cc2)n1 [I.31-7] | 2 | 2 | – | –
7 | COC(=O)COc1nc(-c2ccc(F)cn2)n(-c2ccc(F)cc2F)n1 [I.31-38] | – | 2 | – | –
8 | COC(=O)COc1nc(-c2ccc(F)cn2)n(-c2ccc(F)cc2Cl)n1 [I.31-48] | 2 | 2 | – | –
9 | COC(=O)COc1nc(-c2ccc(F)cn2)n(-c2ccc(Cl)cc2F)n1 [I.31-49] | 2 | 2 | – | –
10 | CCOC(=O)COc1nc(-c2ccc(F)cn2)n(-c2ccccc2F)n1 [I.32-2] | – | 2 | – | –
11 | CCOC(=O)COc1nc(-c2ccc(F)cn2)n(-c2ccc(F)cc2)n1 [I.32-4] | – | 2 | – | –
12 | CCOC(=O)COc1nc(-c2ccc(F)cn2)n(-c2ccc(Cl)cc2)n1 [I.32-7] | 2-3 | 2 | – | –
13 | CCOC(=O)COc1nc(-c2ccc(F)cn2)n(-c2ccc(F)cc2F)n1 [I.32-38] | 2 | 2 | – | –
14 | CCOC(=O)COc1nc(-c2ccc(F)cn2)n(-c2ccc(Cl)cc2F)n1 [I.32-49] | 2 | 2 | – | –
15 | O=C(O)COc1nc(-c2ccc(F)cn2)n(-c2ccc(F)cc2)n1 [I.33-4] | – | 2 | – | –
16 | O=C(O)COc1nc(-c2ccc(F)cn2)n(-c2ccc(Cl)cc2F)n1 [I.33-49] | – | 2 | – | –
17 | COC(=O)COc1nc(-c2ccncc2Cl)n(-c2ccc(Cl)cc2F)n1 [I.43-49] | 2 | – | – | –
18 | COC(=O)COc1nc(-c2ncccc2F)n(-c2ccccc2)n1 [I.64-1] | – | 2 | 2 | 2
19 | COC(=O)COc1nc(-c2ncccc2F)n(-c2ccc(Cl)cc2F)n1 [I.64-49] | – | – | 2 | 2
20 | COC(=O)CCOC(=O)COc1nc(-c2ccc(Cl)cn2)n(-c2ccc(F)cc2F)n1 [I.67-38] | – | 2 | – | –
21 | O=C(COc1nc(-c2ccc(Cl)cn2)n(-c2ccc(F)cc2F)n1)OCC1CCCO1 (centres unmarked) [I.68-38] | 2 | 2 | – | –
22 | O=C(COc1nc(-c2ccc(Cl)cn2)n(-c2ccc(F)cc2F)n1)OCC1CCOC1 (centres unmarked) [I.69-38] | 2-3 | – | – | –
23 | O=C(COc1nc(-c2ccc(Cl)cn2)n(-c2ccc(F)cc2F)n1)OCC1OCCO1 [I.70-38] | 2 | – | – | –
24 | COCCOC(=O)COc1nc(-c2ccc(Cl)cn2)n(-c2ccc(F)cc2F)n1 [I.73-38] | 2-3 | – | – | –
25 | O=C(COc1nc(-c2ccc(Cl)cn2)n(-c2ccc(F)cc2F)n1)OCC1CC1 [I.80-38, Cyclopropylmethyl {[5-(5-chloropyridin-2-yl)-1-(2,4-difluorophenyl)-1H-1,2,4-triazol-3-yl]oxy}acetate] | – | 2 | – | –
